Values quoted from earlier work in patent publication US8138216B2, “Cannabinoid receptor antagonists/inverse agonists useful for treating metabolic disorders, including obesity and diabetes” (Jenrin Discovery, Inc., priority 2007, dated 2012).

Test system: patients with type 2 diabetes
Settings: after six months of treatment; baseline value 7.9; patients not treated with other anti-diabetic medications; placebo 0.3%

## Cc1c(C(=O)NN2CCCCC2)nn(-c2ccc(Cl)cc2Cl)c1-c1ccc(Cl)cc1 [rimonabant]
  HbA1c levels lowered: 0.8%
